Measurements from patent US6727234B2, “Isoprenoid analog compounds and methods of making and use thereof” (University of Iowa Research Foundation, priority 2001, dated 2004).

Experiments:
cell membranes = assay: Penetration of cell membranes to afford fluorescent cells; type: cell-based; conditions: affords fluorescent cells
[1] = Fluorescence of the compound; type: physicochemical
Excerpt: Compound 58 can be used in enzyme experiments with FPTase and Ras in order to obtain standard Ras proteins labeled with the fluorescent isoprenoid analog. Similarly compound 62 can be used with GGPTase I or II and proteins such as Rho B to obtain other protein standards. Protein standards obtained from in vitro experiments can then be used to analyze cell lysates for the formation of analogous proteins through in vivo experiments. Compound 58 ^1H NMR(D2O) δ7.6 (1H), 7.2 (1H), 6.4 (2H), 5.4 (1H), 5.2 (1H), 4.4 (2H), 3.6 (3H), 3.4 (2H), 2.0 (2H), 1.8 (2H), 1.6 (3H), 1.4 (3H); and ^31P NMR −6.9 (d, 1P) −9.75 (d, 1P).

[2] = Metabolic stability compared to previously prepared analogs; type: in vitro ADME; conditions: compared to other previously prepared analogs; attributed to amine linkage binding anthranilic acid to the terpenoid chain
Excerpt: As exemplified in the reaction scheme below, Fischer esterification of commercial anthranilic acid provides the corresponding amino ester 54. Reductive amination of amine 54 with aldehyde 55, derived from SeO2 oxidation of geranyl acetate and subsequent MnO2 oxidation, gave the desired amine 56 and subsequent cleavage of the acetate gave the farnesol analog 57.

For `COC(=O)c1ccccc1NC/C(C)=C/CC/C(C)=C/CO` [Compound 57], the “penetration of cell membranes” value (cell membranes) was “readily penetrates cell membranes”, the fluorescence [1] was “highly fluorescent” and the metabolic stability [2] was “much greater degree of metabolic stability”.
